Where two headings read alike, the source gives them in different places.
What was measured:
[1] = Oral bioavailability test, dog; conditions: in vivo, 4 mg/kg dose
Description: (§1) All PK experiments are standard tests that performed in either WuXi PharmaTech or Charels River Laboratory. 4315 and 4485 (Orin 1001) were dosed PO as a suspension in 1% microcellulose (Sigma) and 50% Sucrouse (Sigma).

[2] = target: T1, IRE1α (Mus musculus, UniProt Q9EQY0); assay: Liver PD screening assay: XBP-1 splicing analysis of liver after tunicamycin (Example 25); format: in vivo, BALB/c mice; conditions: PO, 2 hours after tunicamycin 1 mg/kg ip, liver 2 hours after dosing, FIG. 23, read-out: ED50 (inhibition of XBP-1 splicing in liver)
T1 construct: from tissue; host or cells: liver of BALB/c mice (in vivo)
Description: Example 25 was related to comparative PD/PK data of Orin 1001 VS compound 4315, as its structure shown below, which is an earlier lead of this series of compounds. Tunicamycin was used herein to activate IRE1, then Orin 1001 (also called 4485) or 4315 were given to inhibit the activating effect. […] Each gel panel represents one mouse liver sample as in the figure.
BALB/c mice were injected intraperitoneally with 100 microliters at an equivalent dose of 1 mg/kg tunicamycin solution. Two hours after tunicamycin injection, mice were dosed with compound of interest either PO or IV. Following 2 hours for PO delivery of compound, mice were euthanized according to IACUC protocols using CO2 from a […] source. A 1 cm^3 fragment of the liver for homogenization and extraction of the RNA were collected for further analysis. Total RNA is harvested from cells or tissue using TRIzol according to the manufacturer's procedures. After ethanol precipitation and resuspension of the RNA, RiboGreen (Invitrogen) is used to quantify the yield and normalize the RNA concentration in the source tube containing isolated RNA. RT-PCR is performed by Oligo(dT) priming, and SuperScript II (Invitrogen) transcription using the Amplitaq Gold Kit (Applied Biosystems) according to the manufacturer's protocols. Primers for human XBP-1 are 5_-[…]-3_ (forward, Seq ID No. 8) and 5_-[…]-3_ (reverse, Seq ID No. 9), and for mouse are 5_-[…]-3_ (forward, Seq ID No. 10) and 5_-[…]-3 (Seq ID No. 11). All DNA oligos were purchased from IDT DNA Technologies. PCR is run on a Bio-Rad PTC-100 96-well thermocycler with heating at 94° C. for 30 s, annealing at 58° C. for 30 s, and polymerizing at 72° C. for 30 s for 35 cycles. Reactions are run on 4% precast NuSieve gels from Cambrex and visualized by ethidium bromide staining and UV excitation.
as §1

[3] = tested on: human ovarian carcinoma A2780 tumor cells; assay: A2780 ovarian carcinoma xenograft (Example 18); format: in vivo, female NCr nu/nu mice; conditions: Orin 1001 300 mg/kg/day oral 28 days; paclitaxel 15 mg/kg iv weekly; endpoint 2000 mm^3 or Day 60
Description: (§2) Orin 1001 was administered by oral gavage in a xenograft mouse model using female NCr nu/nu mice injected subcutaneously with human ovarian carcinoma A2780 tumor cells. Animals were assigned to 4 groups (n=6/group); Vehicle control administered by oral gavage for 28 days, Orin 1001 administered via oral gavage at 300 mg/kg/day for 28 consecutive days, paclitaxel administered weekly by iv at 15 mg/kg, or Orin 1001 administered in combination with paclitaxel.
The percent tumor growth delay was calculated using the following equation: TGD (%)=[T-C/C]×100, where T-C is the difference in time to tumor endpoint from Treated (T) and Control (C).

[4] = Oral bioavailability test, mouse; conditions: in vivo, 10 mg/kg dose
Description: as §1

[5] = 7-day toxicity study; format: in vivo; conditions: cynomolgus monkey
[6] = Oral bioavailability test, rat; conditions: in vivo, 10 mg/kg dose
Description: as §1

[7] = tested on: human glioblastoma U-87 MG tumor cells; assay: U-87 MG glioblastoma xenograft (Example 19); format: in vivo, female NCr nu/nu mice
Description: as §2, with “glioblastoma U-87 MG” for “ovarian carcinoma A2780”, “cells, a glioblastoma multiforme (GBM) cell line.” for “cells.”
The percent tumor growth delay was calculated using the following equation: TGD (%)=[T-C/C]×100; where T-C is the difference in time to tumor endpoint from Treated (T) and Control (C).
The time to tumor endpoint (TTE) for each animal was further calculated using the following equation: TTE (days)=log 10 (endpoint volume, mm^3)-b/m, where b is the intercept and m is the slope of the line obtained by linear regression of the log-transformed tumor growth data set.

[8] = tested on: human breast adenocarcinoma MDA-MB231 tumor cells; format: in vivo
Description: (§3) Orin 1001 was administered by oral gavage in combination with paclitaxel in a xenograft mouse model using female NCr nu/nu mice (n=10 in each group) injected subcutaneously with human breast adenocarcinoma MDA-MB231 tumor cells. To evaluate the effect of Orin 1001 in combination with paclitaxel, Orin 1001 was administered via oral gavage at 75, 150 or 300 mg/kg/day in combination with paclitaxel at 10 mg/kg iv, weekly (n=10/group) for up to 60 days.

[9] = tested on: human breast adenocarcinoma MDA-MB231 tumor cells; format: in vivo; remark: listed apart in the source
Description: as §3, with “mice” for “mice (n=10 in each group)”, “paclitaxel on early, mid or late stage tumor growth, dosing was initiated either on Day 1 (when tumors reached 225-250 mm^3), Day 14 or Day 28 of tumor growth.” for “paclitaxel,”, “at” for “at 75, 150 or”

[10] = Orin 1001 300 mg/kg/day oral 28 days, paclitaxel 15 mg/kg iv weekly, endpoint 2000 mm^3 or Day 60

T1 sequence (Q9EQY0 21-977): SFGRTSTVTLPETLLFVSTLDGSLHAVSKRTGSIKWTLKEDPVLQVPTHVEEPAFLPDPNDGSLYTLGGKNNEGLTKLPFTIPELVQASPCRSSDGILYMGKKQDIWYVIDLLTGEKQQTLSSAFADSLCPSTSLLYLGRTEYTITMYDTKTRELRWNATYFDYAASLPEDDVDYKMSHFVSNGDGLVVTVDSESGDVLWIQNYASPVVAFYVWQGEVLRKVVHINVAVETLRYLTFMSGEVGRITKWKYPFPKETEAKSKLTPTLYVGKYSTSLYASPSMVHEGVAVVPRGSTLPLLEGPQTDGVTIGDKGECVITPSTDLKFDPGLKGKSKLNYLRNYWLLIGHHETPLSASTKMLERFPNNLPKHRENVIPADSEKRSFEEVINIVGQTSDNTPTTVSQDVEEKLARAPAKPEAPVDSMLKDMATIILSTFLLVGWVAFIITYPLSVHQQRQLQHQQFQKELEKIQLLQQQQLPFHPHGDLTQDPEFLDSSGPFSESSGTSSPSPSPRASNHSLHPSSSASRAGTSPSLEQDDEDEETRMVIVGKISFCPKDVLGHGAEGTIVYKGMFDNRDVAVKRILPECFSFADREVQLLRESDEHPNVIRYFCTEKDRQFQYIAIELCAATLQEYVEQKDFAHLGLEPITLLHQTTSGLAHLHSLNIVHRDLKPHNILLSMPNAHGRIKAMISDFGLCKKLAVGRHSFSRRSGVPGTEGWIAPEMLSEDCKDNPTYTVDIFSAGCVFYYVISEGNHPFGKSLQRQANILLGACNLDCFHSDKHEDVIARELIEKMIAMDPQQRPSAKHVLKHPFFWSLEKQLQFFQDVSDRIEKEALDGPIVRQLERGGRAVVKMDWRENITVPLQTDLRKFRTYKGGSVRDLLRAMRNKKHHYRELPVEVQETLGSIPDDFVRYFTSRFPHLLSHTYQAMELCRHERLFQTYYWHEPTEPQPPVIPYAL

COc1cc2c(C)c(CC(=O)N3CCOCC3)c(=O)oc2c(C=O)c1O [Orin 1001]
bioavailability [1]: 68.5% | ED50 [2]: < 2 mg/kg | percent tumor growth delay (TGD) [3]: 29% | bioavailability [4]: 63% | 5-fold safety margin [5]: 750 mg/kg/day | NOAEL at 7 day ([5]; in vivo, read-out: No Observable Adverse Effect Level (NOAEL)): 150 mg/kg/day | bioavailability [6]: 52% | percent tumor growth delay (TGD) [7, 10]: 13% | time to tumor endpoint (TTE) [7, 10]: 29.3 days | tumor delay effect over the control ([7]; each agent alone): not very significant | clinical signs of toxicity ([8]; 75, 150 or 300 mg/kg/day oral gavage with paclitaxel 10 mg/kg iv weekly, up to 60 days): no clinical signs of toxicity | tolerability of extended oral dosing ([8]; up to 60 consecutive days): well tolerated | clinical signs of toxicity ([9]; 300 mg/kg/day oral gavage with paclitaxel 10 mg/kg iv weekly, up to 60 days): no clinical signs of toxicity | tolerability of extended oral dosing ([9]; up to 60 consecutive days): well tolerated
